Mutagenic call data for 6 molecules are collected here from PubChem BioAssay AID1259407 (Chemical Carcinogenesis Research Information System (CCRIS), 2018).

The source made the active and inactive calls. How the calls were made is not given here.

The data set concerns CCRIS mutagenicity, Ames/micronucleus/aberration tests. Description: CCRIS mutagenicity studies.
[1] abbreviates: Test System: AMES SALMONELLA TYPHIMURIUM, Strain/Indicator: TA98, Metabolic Activation: HAMSTER, LIVER, S-9, AROCLOR 1254 (10%), Method: STANDARD PLATE.
[2] abbreviates: Test System: AMES SALMONELLA TYPHIMURIUM, Strain/Indicator: TA98, Metabolic Activation: NONE, Method: STANDARD PLATE.
The mark [3] stands for this setting: Test System: AMES SALMONELLA TYPHIMURIUM, Strain/Indicator: TA98, Metabolic Activation: RAT, LIVER, S-9, AROCLOR 1254 (10%), Method: STANDARD PLATE.
Where [4] appears, read: Test System: AMES SALMONELLA TYPHIMURIUM, Strain/Indicator: TA100, Metabolic Activation: HAMSTER, LIVER, S-9, AROCLOR 1254 (10%), Method: STANDARD PLATE.
[5] abbreviates: Test System: AMES SALMONELLA TYPHIMURIUM, Strain/Indicator: TA100, Metabolic Activation: NONE, Method: STANDARD PLATE.
[6] abbreviates: Test System: AMES SALMONELLA TYPHIMURIUM, Strain/Indicator: TA100, Metabolic Activation: RAT, LIVER, S-9, AROCLOR 1254 (10%), Method: STANDARD PLATE.
The mark [7] stands for this setting: Test System: AMES SALMONELLA TYPHIMURIUM, Strain/Indicator: TA1535, Metabolic Activation: HAMSTER, LIVER, S-9, AROCLOR 1254 (10%), Method: STANDARD PLATE.
Where [8] appears, read: Test System: AMES SALMONELLA TYPHIMURIUM, Strain/Indicator: TA1535, Metabolic Activation: NONE, Method: STANDARD PLATE.
Where [9] appears, read: Test System: AMES SALMONELLA TYPHIMURIUM, Strain/Indicator: TA1535, Metabolic Activation: RAT, LIVER, S-9, AROCLOR 1254 (10%), Method: STANDARD PLATE.
Setting [10] is: Test System: AMES SALMONELLA TYPHIMURIUM, Strain/Indicator: TA1537, Metabolic Activation: HAMSTER, LIVER, S-9, AROCLOR 1254 (10%), Method: STANDARD PLATE.
Where [11] appears, read: Test System: AMES SALMONELLA TYPHIMURIUM, Strain/Indicator: TA1537, Metabolic Activation: NONE, Method: STANDARD PLATE.
Setting [12] is: Test System: AMES SALMONELLA TYPHIMURIUM, Strain/Indicator: TA1537, Metabolic Activation: RAT, LIVER, S-9, AROCLOR 1254 (10%), Method: STANDARD PLATE.
Setting [13] is: Test System: AMES SALMONELLA TYPHIMURIUM, Strain/Indicator: TA1538, Metabolic Activation: HAMSTER, LIVER, S-9, AROCLOR 1254 (10%), Method: STANDARD PLATE.
The mark [14] stands for this setting: Test System: AMES SALMONELLA TYPHIMURIUM, Strain/Indicator: TA1538, Metabolic Activation: NONE, Method: STANDARD PLATE.
The mark [15] stands for this setting: Test System: AMES SALMONELLA TYPHIMURIUM, Strain/Indicator: TA1538, Metabolic Activation: RAT, LIVER, S-9, AROCLOR 1254 (10%), Method: STANDARD PLATE.
Where [16] appears, read: Test System: MOUSE LYMPHOMA, Strain/Indicator: L5178Y (TK+/TK-), Metabolic Activation: NONE, Method: SUSPENSION/PLATE.
Where [17] appears, read: Test System: MOUSE LYMPHOMA, Strain/Indicator: L5178Y (TK+/TK-), Metabolic Activation: RAT, LIVER, S-9, AROCLOR 1254, Method: SUSPENSION/PLATE.
Where [18] appears, read: Test System: AMES SALMONELLA TYPHIMURIUM, Strain/Indicator: TA98, Metabolic Activation: NONE, Method: PREINCUBATION
Where [19] appears, read: Test System: AMES SALMONELLA TYPHIMURIUM, Strain/Indicator: TA100, Metabolic Activation: NONE, Method: PREINCUBATION

In the case of `CC(O)CN1CC(C)OC1=O` (stereo not given), the mutagenic call is, setting by setting: under setting [1], “inactive; negative”; under setting [2], “inactive; negative”; under setting [3], “inactive; negative”; under setting [4], “inactive; negative”; under setting [5], “inactive; negative”; under setting [6], “inactive; negative”. The mutagenic call by setting is: under setting [7], “inactive; negative”; under setting [8], “inactive; negative”; under setting [9], “inactive; negative”; under setting [10], “inactive; negative”; under setting [11], “inactive; negative”; under setting [12], “inactive; negative”. The mutagenic call is, setting by setting: under setting [13], “inactive; negative”; under setting [14], “inactive; negative”; under setting [15], “inactive; negative”; under setting [16], “active; positive. reevaluation of results: positive”; under setting [17], “active; positive. reevaluation of results: equivocal”.
With `Oc1cccc2c1ccc1c3c4c(cccc4cc12)C=C3`, the mutagenic call is, setting by setting: under setting [2], “inactive; negative”; (Test System: AMES SALMONELLA TYPHIMURIUM, Strain/Indicator: TA98, Metabolic Activation: RAT, LIVER, S-9, AROCLOR 1254 (0, 0.4, 0.8, 1.15 OR 1.5 MG/PLATE), Method: STANDARD PLATE) “active; positive”.
As for `C=C[Si](C)(C)N[Si](C)(C)C=C`, the mutagenic call is “inactive; negative” under setting [1]; “inactive; negative” under setting [2]; “inactive; negative” under setting [3]; “inactive; negative” under setting [4]; “inactive; negative” under setting [5]; “inactive; negative” under setting [6]. For the same molecule, the mutagenic call is “inactive; negative” under setting [7]; “inactive; negative” under setting [8]; “inactive; negative” under setting [9]; “inactive; negative” under setting [10]; “inactive; negative” under setting [11]; “inactive; negative” under setting [12]. The mutagenic call is “inactive; negative” under setting [13]; “inactive; negative” under setting [14]; “inactive; negative” under setting [15]; “inactive; negative. reevaluation of results: negative” under setting [16]; “inactive; negative. reevaluation of results: negative” under setting [17].
Regarding `O=C(CCl)NCO`, the mutagenic call is, setting by setting: (Test System: AMES SALMONELLA TYPHIMURIUM, Strain/Indicator: TA97, Metabolic Activation: NONE, Method: STANDARD PLATE) “inactive; negative”; (Test System: AMES SALMONELLA TYPHIMURIUM, Strain/Indicator: TA97, Metabolic Activation: RAT, LIVER, S-9, AROCLOR 1254, Method: STANDARD PLATE) “inactive; negative”; under setting [18], “inactive; negative”; under setting [2], “inactive; negative”; (Test System: AMES SALMONELLA TYPHIMURIUM, Strain/Indicator: TA98, Metabolic Activation: RAT, LIVER, S-9, AROCLOR 1254, Method: PREINCUBATION) “inactive; negative”; (Test System: AMES SALMONELLA TYPHIMURIUM, Strain/Indicator: TA98, Metabolic Activation: RAT, LIVER, S-9, AROCLOR 1254, Method: STANDARD PLATE) “inactive; negative”. Also, the mutagenic call reads like this: under setting [19], “inactive; negative”; under setting [5], “inactive; negative”; (Test System: AMES SALMONELLA TYPHIMURIUM, Strain/Indicator: TA100, Metabolic Activation: RAT, LIVER, S-9, AROCLOR 1254, Method: PREINCUBATION) “inactive; negative”; (Test System: AMES SALMONELLA TYPHIMURIUM, Strain/Indicator: TA100, Metabolic Activation: RAT, LIVER, S-9, AROCLOR 1254, Method: STANDARD PLATE) “inactive; negative”; under setting [8], “inactive; negative”; (Test System: AMES SALMONELLA TYPHIMURIUM, Strain/Indicator: TA1535, Metabolic Activation: RAT, LIVER, S-9, AROCLOR 1254, Method: STANDARD PLATE) “inactive; negative”. Besides, the mutagenic call is “inactive; negative” under setting [11]; “inactive; negative” (Test System: AMES SALMONELLA TYPHIMURIUM, Strain/Indicator: TA1537, Metabolic Activation: RAT, LIVER, S-9, AROCLOR 1254, Method: STANDARD PLATE); “inactive; negative” under setting [14]; “inactive; negative” (Test System: AMES SALMONELLA TYPHIMURIUM, Strain/Indicator: TA1538, Metabolic Activation: RAT, LIVER, S-9, AROCLOR 1254, Method: STANDARD PLATE).
For the molecule `OC1C[C@]23C=CC=C[C@@]2(C1)O3` (stereo not given in full), the mutagenic call reads like this: under setting [2], “inactive; negative”; under setting [5], “inactive; negative”; (Test System: AMES SALMONELLA TYPHIMURIUM, Strain/Indicator: TM677/8-AZAGUANINE, Metabolic Activation: NONE, Method: STANDARD PLATE) “active; positive”.
`CCCCCCCCCCCCCCCCCC(N)=O`: the mutagenic call is “inactive; negative” under setting [18]; “inactive; negative” (Test System: AMES SALMONELLA TYPHIMURIUM, Strain/Indicator: TA98, Metabolic Activation: RAT LIVER S-9, PHENOBARBITAL AND BETA-NAPHTHOFLAVONE, Method: PREINCUBATION); “inactive; negative” under setting [19]; “inactive; negative” (Test System: AMES SALMONELLA TYPHIMURIUM, Strain/Indicator: TA100, Metabolic Activation: RAT LIVER S-9, PHENOBARBITAL AND BETA-NAPHTHOFLAVONE, Method: PREINCUBATION); “inactive; negative” (Test System: AMES SALMONELLA TYPHIMURIUM, Strain/Indicator: TA1535, Metabolic Activation: NONE, Method: PREINCUBATION); “inactive; negative” (Test System: AMES SALMONELLA TYPHIMURIUM, Strain/Indicator: TA1535, Metabolic Activation: RAT LIVER S-9, PHENOBARBITAL AND BETA-NAPHTHOFLAVONE, Method: PREINCUBATION). For the same molecule, the mutagenic call is “inactive; negative” (Test System: AMES SALMONELLA TYPHIMURIUM, Strain/Indicator: TA1537, Metabolic Activation: NONE, Method: PREINCUBATION); “inactive; negative” (Test System: AMES SALMONELLA TYPHIMURIUM, Strain/Indicator: TA1537, Metabolic Activation: RAT LIVER S-9, PHENOBARBITAL AND BETA-NAPHTHOFLAVONE, Method: PREINCUBATION); “inactive; negative” (Test System: E.COLI, Strain/Indicator: WP2UVRA/PKM101, Metabolic Activation: NONE, Method: PREINCUBATION); “inactive; negative” (Test System: E.COLI, Strain/Indicator: WP2UVRA/PKM101, Metabolic Activation: RAT LIVER S-9, PHENOBARBITAL AND BETA-NAPHTHOFLAVONE, Method: PREINCUBATION).
